Measurements published in patent US10294202B2, “Pyrrolidinones as herbicides” (FMC Corporation, priority 2013, dated 2019).

Legend:
[1] = tested on: pigweed; assay: Test A pre-/postemergence herbicide test; type: in vivo, Amaranthus retroflexus; conditions: for Pigweed plant response rating: Preemergence, visual rating on 0 to 100 scale (0 no effect, 100 complete control)
In short: (§1)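 Seeds in loam–sand blend received preemergence directed soil spray; separately, plants 2–10 cm at one- to two-leaf stage received postemergence spray, both with test chemicals in non-phytotoxic solvent with surfactant. After ~10 days in greenhouse, injury rated visually against untreated controls, 0 (no effect) to 100 (complete control).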

[2] = tested on: corn; assay: Test A pre-/postemergence herbicide test; type: in vivo, Zea mays
In short: as §1

[3] = tested on: barnyardgrass; assay: Test B flooded paddy test; type: in vivo, Echinochloa crus-galli; conditions: Flood, scale of 0 to 100 where 0 is no effect and 100 is complete control
In short: (§2)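 First, plants reach the 2-leaf stage; next, pots are flooded to 3 cm and compound is delivered into the water; finally, after 13 to 15 greenhouse days at constant depth, injury is graded visually from 0 to 100 against controls.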

[4] = tested on: barnyardgrass; assay: Test A pre-/postemergence herbicide test; type: in vivo, Echinochloa crus-galli; conditions: for Barnyardgrass plant response rating: Preemergence, visual rating on 0 to 100 scale (0 no effect, 100 complete control)
In short: as §1

[5] = tested on: ragweed; assay: Test A pre-/postemergence herbicide test; type: in vivo, Ambrosia elatior
In short: as §1

[6] = tested on: kochia; assay: Test A pre-/postemergence herbicide test; type: in vivo, Kochia scoparia
In short: as §1

[7] = tested on: wheat; assay: Test A pre-/postemergence herbicide test; type: in vivo, Triticum aestivum
In short: as §1

[8] = tested on: galium; assay: Test A postemergence herbicide test; type: in vivo, Galium aparine
In short: (§3)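 Visual injury rating, 0 (no effect) to 100 (complete control), versus untreated controls ~10 days after treatment. Postemergence spray applied at one- to two-leaf stage, plants 2–10 cm tall, potted in loam soil/sand. Greenhouse-held.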

[9] = tested on: giant foxtail; assay: Test A pre-/postemergence herbicide test; type: in vivo, Setaria faberii; conditions: for Foxtail, Giant plant response rating: Preemergence, visual rating on 0 to 100 scale (0 no effect, 100 complete control)
In short: as §1

[10] = tested on: ryegrass, Italian; assay: Test A pre-/postemergence herbicide test; type: in vivo, Lolium multiflorum
In short: as §1

[11] = tested on: rice; assay: Test B flooded paddy test; type: in vivo, Oryza sativa; conditions: Flood, scale of 0 to 100 where 0 is no effect and 100 is complete control
In short: as §2

[12] = tested on: sedge, umbrella; assay: Test B flooded paddy test; type: in vivo, Cyperus difformis; conditions: Flood, scale of 0 to 100 where 0 is no effect and 100 is complete control
In short: as §2

[13] = tested on: blackgrass; assay: Test A postemergence herbicide test; type: in vivo, Alopecurus myosuroides
In short: as §3

[14] = tested on: ducksalad; assay: Test B flooded paddy test; type: in vivo, Heteranthera limosa; conditions: Flood, scale of 0 to 100 where 0 is no effect and 100 is complete control
In short: as §2

[15] = tested on: crabgrass, large; assay: Test A pre-/postemergence herbicide test; type: in vivo, Digitaria sanguinalis
In short: as §1

[16] = tested on: morningglory; assay: Test A pre-/postemergence herbicide test; type: in vivo, Ipomoea spp.
In short: as §1

[17] = tested on: velvetleaf; assay: Test A pre-/postemergence herbicide test; type: in vivo, Abutilon theophrasti
In short: as §1

[18] = Postemergence, 125 g ai/ha, 0 to 100 scale, 0 no effect, 100 complete control
[19] = Postemergence, 500 g ai/ha, 0 to 100 scale (0 no effect, 100 complete control)
[20] = preemergence, 500 g ai/ha, 0 to 100 scale
[21] = preemergence, 500 g ai/ha, 0 to 100 scale (0 no effect, 100 complete control)
[22] = Preemergence, 125 g ai/ha, visual rating on 0 to 100 scale (0 no effect, 100 complete control)
[23] = 125 g ai/ha, 0 to 100 scale, 0 no effect, 100 complete control
[24] = 500 g ai/ha, 0 to 100 scale (0 no effect, 100 complete control)
[25] = 125 g ai/ha, visual rating, 0 to 100 scale, 0 no effect, 100 complete control, approximately 10 days, preemergence

## O=C1NCC(c2cccc(C(F)(F)F)c2)C1C(=O)Nc1ccccn1 (racemic) [Compound 110]
[1]; [18]
  Plant response rating, Pigweed: 0
[1]; [19]
  Plant response rating, Pigweed: 0
[1]; 125 g ai/ha
  Pigweed plant response rating: 0
[1]; [20]
  Plant response rating, Pigweed: 0
[2]; [18]
  Plant response rating, Corn: 0
[2]; [19]
  Plant response rating, Corn: 20
[3]; 1000 g ai/ha
  Plant response rating, Barnyardgrass: 0
[4]; [18]
  Plant response rating, Barnyardgrass: 50
[4]; [19]
  Plant response rating, Barnyardgrass: 90
[4]; 125 g ai/ha
  Barnyardgrass plant response rating: 70
[4]; [21]
  Plant response rating, Barnyardgrass: 90
[5]; [18]
  Plant response rating, Ragweed: 0
[5]; [19]
  Plant response rating, Ragweed: 0
[5]; [22]
  Ragweed plant response rating: 0
[5]; [20]
  Plant response rating, Ragweed: 0
[6]; [18]
  Plant response rating, Kochia: 0
[6]; [19]
  Plant response rating, Kochia: 0
[6]; [22]
  Kochia plant response rating: 0
[6]; [20]
  Plant response rating, Kochia: 0
[7]; [18]
  Plant response rating, Wheat: 0
[7]; [19]
  Plant response rating, Wheat: 20
[8]; [23]
  Plant response rating, Galium: 20
[8]; [24]
  Plant response rating, Galium: 40
[9]; [18]
  Plant response rating, Foxtail, Giant: 80
[9]; [19]
  Plant response rating, Foxtail, Giant: 90
[9]; 125 g ai/ha
  Foxtail, Giant plant response rating: 60
[9]; [20]
  Plant response rating, Foxtail, Giant: 90
[10]; [18]
  Plant response rating, Ryegrass, Italian: 20
[10]; [19]
  Plant response rating, Ryegrass, Italian: 40
[10]; [22]
  Ryegrass, Italian plant response rating: 0
[10]; [20]
  Plant response rating, Ryegrass, Italian: 0
[11]; 1000 g ai/ha
  Plant response rating, Rice: 0
[12]; 1000 g ai/ha
  Plant response rating, Sedge, Umbrella: 50
[13]; [23]
  Plant response rating, Blackgrass: 0
[13]; [24]
  Plant response rating, Blackgrass: 70
[14]; 1000 g ai/ha
  Plant response rating, Ducksalad: 95

## O=C1NCC(c2ccc(F)cc2)C1C(=O)Nc1ccccc1OC(F)F (racemic) [Compound 118]
[1]; [25]
  Plant response rating, Pigweed: 0
[1]; [18]
  Plant response rating, Pigweed: 0
[1]; Postemergence, 500 g ai/ha
  Pigweed plant response rating (0 to 100 scale, 0 is no effect, 100 is complete control): 0
[1]; [20]
  Plant response rating, Pigweed: 0
[2]; [18]
  Plant response rating, Corn: 0
[2]; [19]
  Plant response rating, Corn: 0
[3]; 500 g ai/ha
  Plant response rating, Barnyardgrass: 20
[4]; [25]
  Plant response rating, Barnyardgrass: 50
[4]; [18]
  Plant response rating, Barnyardgrass: 0
[4]; [19]
  Plant response rating, Barnyardgrass: 60
[4]; [21]
  Plant response rating, Barnyardgrass: 70
[5]; [25]
  Plant response rating, Ragweed: 0
[5]; [18]
  Plant response rating, Ragweed: 0
[5]; Postemergence, 500 g ai/ha
  Ragweed plant response rating (0 to 100 scale, 0 is no effect, 100 is complete control): 0
[5]; [20]
  Plant response rating, Ragweed: 0
[6]; [25]
  Plant response rating, Kochia: 0
[6]; [18]
  Plant response rating, Kochia: 10
[6]; Postemergence, 500 g ai/ha
  Kochia plant response rating (0 to 100 scale, 0 is no effect, 100 is complete control): 50
[6]; [20]
  Plant response rating, Kochia: 0
[7]; [18]
  Plant response rating, Wheat: 0
[7]; Postemergence, 500 g ai/ha
  Wheat plant response rating (0 to 100 scale, 0 is no effect, 100 is complete control): 0
[8]; [23]
  Plant response rating, Galium: 50
[8]; 500 g ai/ha
  Galium plant response rating (0 to 100 scale, 0 is no effect, 100 is complete control): 60
[9]; [25]
  Plant response rating, Foxtail, Giant: 90
[9]; [18]
  Plant response rating, Foxtail, Giant: 50
[9]; Postemergence, 500 g ai/ha
  Foxtail, Giant plant response rating (0 to 100 scale, 0 is no effect, 100 is complete control): 80
[9]; [20]
  Plant response rating, Foxtail, Giant: 90
[10]; [25]
  Plant response rating, Ryegrass, Italian: 0
[10]; [18]
  Plant response rating, Ryegrass, Italian: 0
[10]; Postemergence, 500 g ai/ha
  Ryegrass, Italian plant response rating (0 to 100 scale, 0 is no effect, 100 is complete control): 0
[10]; [20]
  Plant response rating, Ryegrass, Italian: 0
[11]; 500 g ai/ha
  Plant response rating, Rice: 0
[12]; 500 g ai/ha
  Plant response rating, Sedge, Umbrella: 0
[13]; [23]
  Plant response rating, Blackgrass: 0
[13]; [24]
  Plant response rating, Blackgrass: 0
[14]; 500 g ai/ha
  Plant response rating, Ducksalad: 100

## O=C1NCC(c2ccc3c(c2)OC(F)(F)O3)C1C(=O)Nc1ccccc1F (stereo not drawn) [Compound 63]
[1]; [18]
  Plant response rating, Pigweed: 0
[1]; [19]
  Plant response rating, Pigweed: 0
[1]; 125 g ai/ha
  Pigweed plant response rating: 0
[1]; [20]
  Plant response rating, Pigweed: 0
[2]; [18]
  Plant response rating, Corn: 0
[2]; [19]
  Plant response rating, Corn: 50
[2]; [22]
  Corn plant response rating: 0
[2]; [20]
  Plant response rating, Corn: 0
[3]; 250 g ai/ha
  Plant response rating, Barnyardgrass: 20
[4]; [18]
  Plant response rating, Barnyardgrass: 60
[4]; [19]
  Plant response rating, Barnyardgrass: 80
[4]; 125 g ai/ha
  Barnyardgrass plant response rating: 50
[4]; [21]
  Plant response rating, Barnyardgrass: 80
[7]; [18]
  Plant response rating, Wheat: 0
[7]; [19]
  Plant response rating, Wheat: 30
[7]; [22]
  Wheat plant response rating: 0
[7]; [20]
  Plant response rating, Wheat: 0
[9]; [18]
  Plant response rating, Foxtail, Giant: 70
[9]; [19]
  Plant response rating, Foxtail, Giant: 90
[9]; 125 g ai/ha
  Foxtail, Giant plant response rating: 70
[9]; [20]
  Plant response rating, Foxtail, Giant: 90
[15]; [18]
  Plant response rating, Crabgrass, Large: 80
[15]; [19]
  Plant response rating, Crabgrass, Large: 90
[15]; [22]
  Crabgrass, Large plant response rating: 90
[15]; [20]
  Plant response rating, Crabgrass, Large: 90
[16]; [18]
  Plant response rating, Morningglory: 0
[16]; [19]
  Plant response rating, Morningglory: 0
[16]; [22]
  Morningglory plant response rating: 0
[16]; [20]
  Plant response rating, Morningglory: 0
[11]; 250 g ai/ha
  Plant response rating, Rice: 0
[12]; 250 g ai/ha
  Plant response rating, Sedge, Umbrella: 0
[17]; [18]
  Plant response rating, Velvetleaf: 0
[17]; [19]
  Plant response rating, Velvetleaf: 0
[17]; [22]
  Velvetleaf plant response rating: 0
[17]; [20]
  Plant response rating, Velvetleaf: 0
[14]; 250 g ai/ha
  Plant response rating, Ducksalad: 60
